ChEMBL document CHEMBL3525989 (Drug Metab Dispos, 2011)

Experiments:
Cytochrome P450 3A4 [1] = target: T1, Cytochrome P450 3A4 (Homo sapiens, UniProt P08684); assay: Inhibition of recombinant CYP3A4 (unknown origin) expressed in baculosomes in presence of 1 mM NADPH and 1 mM nucleophilic trapping agent glutathione; assay type: ADME; conditions: recombinant enzyme
Cytochrome P450 3A4 [2] = target: T1, Cytochrome P450 3A4; assay: Inhibition of recombinant CYP3A4 (unknown origin) expressed in baculosomes in presence of 1 mM NADPH and 1 mM nucleophilic trapping agent semicarbazide; assay type: ADME; conditions: recombinant enzyme
Cytochrome P450 3A4 [3] = target: T1, Cytochrome P450 3A4; assay: Inhibition of recombinant CYP3A4 (unknown origin) expressed in baculosomes in presence of 1 mM NADPH and 1 mM nucleophilic trapping agent potassium cyanide; assay type: ADME; conditions: recombinant enzyme
Cytochrome P450 3A4 [4] = target: T1, Cytochrome P450 3A4; assay: Inhibition of recombinant CYP3A4 (unknown origin) expressed in baculosomes in presence of 1 mM NADPH and 1 mM nucleophilic trapping agent methyl hydroxylamine; assay type: ADME; conditions: recombinant enzyme
Cytochrome P450 3A4 [5] = target: T1, Cytochrome P450 3A4; assay: Inhibition of recombinant CYP3A4 (unknown origin) expressed in baculosomes in presence of 1 mM NADPH and 1 mM nucleophilic trapping agent N-acetyl cysteine; assay type: ADME; conditions: recombinant enzyme
Cytochrome P450 3A4 [6] = target: T1, Cytochrome P450 3A4; assay: Inhibition of recombinant CYP3A4 (unknown origin) expressed in baculosomes in presence of 1 mM NADPH and 1 mM nucleophilic trapping agent N-acetyl lysine; assay type: ADME; conditions: recombinant enzyme
Cytochrome P450 3A4 [7] = target: T1, Cytochrome P450 3A4; assay: Inhibition of recombinant CYP3A4 (unknown origin) expressed in baculosomes in presence of 1 mM NADPH and 1 mM nucleophilic trapping agent superoxide dismutase; assay type: ADME; conditions: recombinant enzyme
Cytochrome P450 3A4 [8] = target: T1, Cytochrome P450 3A4; assay: Inhibition of recombinant CYP3A4 (unknown origin) expressed in baculosomes in presence of 1 mM NADPH and 1 mM nucleophilic trapping agent catalase; assay type: ADME; conditions: recombinant enzyme
Cytochrome P450 3A4 [9] = target: T1, Cytochrome P450 3A4; assay: Inhibition of recombinant CYP3A4 (unknown origin) expressed in baculosomes in presence of 1 mM NADPH and 1 mM nucleophilic trapping agent dimethyl pyrroline N-oxide; assay type: ADME; conditions: recombinant enzyme
Cytochrome P450 3A4 [10] = target: T1, Cytochrome P450 3A4; assay: Inhibition of recombinant CYP3A4 (unknown origin) expressed in baculosomes assessed as decrease in CYP3A4-CO binding at 10 uM preincubated for 5 mins measured after […] by LC-tandem mass spectrometry analysis in presence of 1 mM NADPH; assay type: ADME; conditions: recombinant enzyme
Cytochrome P450 3A4 [11] = target: T1, Cytochrome P450 3A4; assay: Inhibition of recombinant CYP3A4 (unknown origin) expressed in baculosomes assessed as decrease in CYP3A4-CO binding at 10 uM preincubated for 5 mins measured after overnight washout with 100 mM potassium phosphate buffer by LC-tandem mass spectrometry analysis in presence of 1 mM NADPH; assay type: ADME; conditions: recombinant enzyme
CYP3A4 [12] = target: T2, CYP3A4 (Homo sapiens, UniProt P08684); assay: Residual activity of recombinant CYP3A4 (unknown origin) expressed in baculosomes at 10 uM measured after 1.5 min in presence of 1 mM NADPH
Cytochrome P450 3A4 [13] = target: T1, Cytochrome P450 3A4; assay: Binding affinity to CYP3A4 (unknown origin); assay type: ADME; conditions: read-out: Ks
CYP3A4 [14] = target: T2, CYP3A4; assay: Inhibition of recombinant CYP3A4 (unknown origin) expressed in baculosomes assessed as enzyme remaining activity at 10 uM measured after 1.5 min in presence of 1 mM NADPH; assay type: ADME; conditions: read-out: Activity
CYP3A4 [15] = target: T2, CYP3A4; assay: (§1) Inhibition of recombinant CYP3A4 (unknown origin) expressed in baculosomes in presence of 1 mM NADPH; assay type: ADME; conditions: human, recombinant CYP3A4 expressed in baculosomes
Cytochrome P450 3A4 [16] = target: T1, Cytochrome P450 3A4; assay: as §1; assay type: ADME

T1 sequence (P08684 whole entry): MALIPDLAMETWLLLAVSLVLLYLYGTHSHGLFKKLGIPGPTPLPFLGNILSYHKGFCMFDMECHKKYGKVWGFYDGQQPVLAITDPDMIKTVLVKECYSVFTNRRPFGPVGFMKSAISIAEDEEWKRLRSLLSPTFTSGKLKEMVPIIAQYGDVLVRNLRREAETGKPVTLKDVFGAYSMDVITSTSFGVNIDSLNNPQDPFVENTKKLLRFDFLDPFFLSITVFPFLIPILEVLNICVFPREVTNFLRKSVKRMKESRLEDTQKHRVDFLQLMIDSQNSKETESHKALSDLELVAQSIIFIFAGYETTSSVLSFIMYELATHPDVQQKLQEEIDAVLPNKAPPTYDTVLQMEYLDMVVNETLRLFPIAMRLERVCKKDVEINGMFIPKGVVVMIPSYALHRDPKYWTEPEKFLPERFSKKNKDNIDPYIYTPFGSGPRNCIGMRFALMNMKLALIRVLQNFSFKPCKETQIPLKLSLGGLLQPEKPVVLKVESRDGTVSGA
T2 sequence (P08684 whole entry): as above

Row | SMILES | inhibition (INH) (Cytochrome P450 3A4 [1]) | inhibition (INH) (Cytochrome P450 3A4 [2]) | inhibition (INH) (Cytochrome P450 3A4 [3]) | inhibition (INH) (Cytochrome P450 3A4 [4]) | inhibition (INH) (Cytochrome P450 3A4 [5]) | inhibition (INH) (Cytochrome P450 3A4 [6]) | inhibition (INH) (Cytochrome P450 3A4 [7]) | inhibition (INH) (Cytochrome P450 3A4 [8]) | inhibition (INH) (Cytochrome P450 3A4 [9]) | inhibition (INH) (Cytochrome P450 3A4 [10]) | inhibition (INH) (Cytochrome P450 3A4 [11]) | residual activity at 0.025 h, 10 µM (CYP3A4 [12]) | Kd (Cytochrome P450 3A4 [13]) | activity at 0.025 h, 10 µM (CYP3A4 [14]) | kinact (CYP3A4 [15]) | Ki (Cytochrome P450 3A4 [16])
1 | COCC(=O)O[C@]1(CCN(C)CCCc2nc3ccccc3[nH]2)CCc2cc(F)ccc2[C@@H]1C(C)C [MIBEFRADIL] | Active | Active | Active | Active | Active | Active | Active | Active | Active | Active | Active | < 20% |  |  |  | 
2 | CC(C)[C@H]1c2ccc(F)cc2CC[C@]1(O)CCN(C)CCCc1nc2ccccc2[nH]1 |  |  |  |  |  |  |  |  |  | Active | Active |  | 1390 nM | 60% | 0.00133 s⁻¹ | 820 nM
